These results are taken from patent US10086085B2, “Bifunctional cytotoxic agents” (priority 2014, dated 2018).

One may read the IC50 as the concentration that inhibits the measured activity by half.

Test [1] concerns N87 (human gastric carcinoma derived from metastatic liver site). The test is described as follows: Cytotoxicity assay for payloads (MTS), N87 cells. Type of test: cell-based. To be noted: Homo sapiens, 96 h; N87 cells, incubated with compounds for four days, MTS absorbance 490 nm; read-out: N87 IC50. The protocol:
(§1) Cancer cell lines were obtained from ATCC (Manassas, Va.). N87 (human gastric carcinoma derived from metastatic liver site). HL60 (leukemia), A375 (melanoma) and HUVEC (human umbilical vein endothelial cells). were grown in RPMI 1640 media. All media were supplemented with 10% fetal bovine serum, 1% sodium pyruvate, and 1% L-glutamine (Invitrogen, Grand Island, N.Y.). Human umbilical vein endothelial cells (HUVEC) were obtained from Lonza (Allendale, N.J.) and maintained in EGM2 media supplemented with EGM-2 SingleQuots (Lonza # CC-4176). All cells were maintained in a humidified incubator (37° C., 5% CO2).
(§2) Cells in 100 μl medium were cultured in a 96-well plate. Cancer cell lines treated with the indicated compounds by adding 50 μl of 3× stocks in duplicate at 10 concentrations. Cells were incubated with compounds for four days, then 30 μl of CellTiter® 96 AQueous One MTS Solution (Promega Cat # G3582) was added to the cells, incubated 1.5 hr at 37° C., then absorbance measured at 490 nm on a Victor plate reader (Perkin Elmer, Waltham, Mass.). Relative cell viability was determined as a percentage of untreated control wells. IC50 values were calculated using four parameter logistic model #203 with XLfit v4.2 (IDBS, Guildford, Surry, UK).

The test system of another test is HL60 (leukemia). The test is described as follows: Cytotoxicity assay for payloads (MTS), HL-60 cells. The test is classed as cell-based. To be noted: Homo sapiens, 96 h, incubated with compounds for four days, MTS absorbance 490 nm. The protocol: as §1, §2

For the compound `CC(=O)Oc1cc2c(c3ccccc13)[C@H](CCl)CN2C(=O)c1ccc(C(=O)N2C[C@@H](CCl)c3c2cc(N)c2ccccc32)s1` [Compound 115, Acetic acid (S)-3-[5-((S)-5-amino-1-chloromethyl-1,2-dihydro-benzo[e]indole-3-carbonyl)-thiophene-2-carbonyl]-1-chloromethyl-2,3-dihydro-1H-benzo[e]indol-5-yl ester], the values for the IC50 (in test [1]; in the test on HL60 (leukemia)) were 1.44 nM and 0.015 nM, respectively.
The corresponding values for `Nc1cc2c(c3ccccc13)[C@H](CCl)CN2C(=O)C12CC(C(=O)N3C[C@@H](CCl)c4c3cc(N)c3ccccc43)(C1)C2` [Compound 130, bicyclo[1.1.1]pentane-1,3-diylbis{[(1S)-5-amino-1-(chloromethyl)-1,2-dihydro-3H-benzo[e]indol-3-yl]methanone}] are 1.8 nM and 0.227 nM.
For `Cc1c[nH]c2c1[C@@]13C[C@@H]1CN(C(=O)C14CC(C(=O)N5C[C@H]6C[C@@]67C5=CC(=O)c5[nH]cc(C)c57)(C1)C4)C3=CC2=O` [Compound 135, (3bR,4aS,3b′R,4a′S)-6,6′-(bicyclo[1.1.1]pentane-1,3-diyldicarbonyl)bis(3-methyl-4,4a,5,6-tetrahydrocyclopropa[c]pyrrolo[3,2-e]indol-8(1H)-one)], in that order: 0.019 nM and 0.005 nM.
For `O=C1C=C2N(C(=O)c3ccc(C(=O)N4C[C@H]5C[C@@]56C4=CC(=O)c4ccccc46)s3)C[C@H]3C[C@@]23c2ccccc21` [Compound 136, (1aS,9bR,1a′S,9b′R)-3,3′-(thiene-2,5-diyldicarbonyl)bis(1,1a,2,3-tetrahydro-5H-benzo[e]cyclopropa[c]indol-5-one)], in that order: 0.003 nM and 0.005 nM.
As for `COC(=O)[C@H]1O[C@@H](Oc2cc3c(c4ccccc24)[C@H](CCl)CN3C(=O)C23CC(C(=O)N4C[C@@H](CCl)c5c4cc(O)c4ccccc54)(C2)C3)[C@H](OC(C)=O)[C@@H](OC(C)=O)[C@@H]1OC(C)=O` [Compound 141, (1S)-1-(chloromethyl)-3-[(3-{[(1S)-1-(chloromethyl)-5-hydroxy-1,2-dihydro-3H-benzo[e]indol-3-yl]carbonyl}bicyclo[1.1.1]pent-1-yl)carbonyl]-2,3-dihydro-1H-benzo[e]indol-5-yl methyl 2,3,4-tri-O-acetyl-beta-D-glucopyranosiduronate], the figures for the half-inhibitory concentration (IC50) (in test [1]; in the test with HL60 (leukemia)) were 12.7 nM and 0.361 nM, respectively.
Regarding `CC(=O)Oc1cc2c(c3ccccc13)[C@H](CCl)CN2C(=O)c1sc(C(=O)N2C[C@@H](CCl)c3c2cc(OC(C)=O)c2ccccc32)c2c1OCCCO2` [Compound 142, 3,4-dihydro-2H-thieno[3,4-b][1,4]dioxepine-6,8-diylbis[carbonyl(1S)-1-(chloromethyl)-1,2-dihydro-3H-benzo[e]indole-3,5-diyl] diacetate], the IC50 in test [1] was ≥ 100 nM; in the test with HL60 (leukemia), ≥ 10 nM.
The corresponding values for `COc1c(C(=O)N2C[C@@H](CCl)c3c2cc(OC(C)=O)c2ccccc32)sc(C(=O)N2C[C@@H](CCl)c3c2cc(OC(C)=O)c2ccccc32)c1OC` [Compound 143, (3,4-dimethoxythiene-2,5-diyl)bis[carbonyl(1S)-1-(chloromethyl)-1,2-dihydro-3H-benzo[e]indole-3,5-diyl] diacetate] are ≥ 100 nM and ≥ 10 nM.
The corresponding values for `CC(=O)Oc1cc2c(c3ccccc13)[C@H](CCl)CN2C(=O)c1nnc(C(=O)N2C[C@@H](CCl)c3c2cc(OC(C)=O)c2ccccc32)s1` [Compound 144, 1,3,4-thiadiazole-2,5-diylbis[carbonyl(1S)-1-(chloromethyl)-1,2-dihydro-3H-benzo[e]indole-3,5-diyl] diacetate] are > 10 nM and 3 nM.
For `O=C(c1ccc(C(=O)N2C[C@@H](CCl)c3c2cc(O[C@@H]2O[C@H](CO)[C@H](O)[C@H](O)[C@H]2O)c2ccccc32)s1)N1C[C@@H](CCl)c2c1cc(O)c1ccccc21` [Compound 145, ((S)-1-(chloromethyl)-5-(((2S,3R,4S,5R,6R)-3,4,5-trihydroxy-6-(hydroxymethyl)tetrahydro-2H-pyran-2-yl)oxy)-1,2-dihydro-3H-benzo[e]indol-3-yl)(5-((S)-1-(chloromethyl)-5-hydroxy-2,3-dihydro-1H-benzo[e]indole-3-carbonyl)thiophen-2-yl)methanone], in that order: 0.13 nM and 0.051 nM.
Consider `Cc1c[nH]c2c(O)cc3c(c12)[C@H](CCl)CN3C(=O)C12CC(C(=O)N3C[C@@H](CCl)c4c3cc(O)c3[nH]cc(C)c43)(C1)C2` [Compound 147, bicyclo[1.1.1]pentane-1,3-diylbis{[(1S)-1-(chloromethyl)-5-hydroxy-8-methyl-1,6-dihydropyrrolo[3,2-e]indol-3(2H)-yl]methanone}], for which the IC50 in test [1] is 0.017 nM; in the test with HL60 (leukemia) it was 0.003 nM.
The corresponding values for `CC(=O)Oc1cc2c(c3ccccc13)[C@H](CCl)CN2C(=O)c1cc2cc(NC(=O)Nc3ccc4[nH]c(C(=O)N5C[C@@H](CCl)c6c5cc(OC(C)=O)c5ccccc65)cc4c3)ccc2[nH]1` [Compound 149, (1S)-3-[(5-{[(2-{[(1S)-5-(acetyloxy)-1-(chloromethyl)-1,2-dihydro-3H-benzo[e]indol-3-yl]carbonyl}-1H-indol-5-yl)carbamoyl]amino}-1H-indol-2-yl)carbonyl]-1-(chloromethyl)-1,2-dihydro-3H-benzo[e]indol-5-yl acetate] are 0.132 nM and 0.007 nM.
The corresponding values for `CC(=O)Oc1cc2c(c3ccccc13)[C@H](CCl)CN2C(=O)C12CC(C(=O)N3C[C@@H](CCl)c4c3cc(OC(C)=O)c3ccccc43)(C1)C2` [Compound 152, bicyclo[1.1.1]pentane-1,3-diylbis[carbonyl(1S)-1-(chloromethyl)-1,2-dihydro-3H-benzo[e]indole-3,5-diyl] diacetate] are 0.278 nM and 0.008 nM.
Turning to `Cc1c[nH]c2c(O)cc3c(c12)[C@H](CCl)CN3C(=O)C12CC(C(=O)N3C[C@@H](CCl)c4c3cc(O)c3ccccc43)(C1)C2` [Compound 154, [(1S)-1-(chloromethyl)-5-hydroxy-1,2-dihydro-3H-benzo[e]indol-3-yl](3-{[(1S)-1-(chloromethyl)-5-hydroxy-8-methyl-1,6-dihydropyrrolo[3,2-e]indol-3(2H)-yl]carbonyl}bicyclo[1.1.1]pent-1-yl)methanone], the values for the IC50 (in test [1]; in the test on HL60 (leukemia)) were 0.026 nM and 0.003 nM, respectively.
The corresponding values for `CC(=O)Oc1cc2c(c3ccccc13)[C@H](CCl)CN2C(=O)CC1(CC(=O)N2C[C@@H](CCl)c3c2cc(OC(C)=O)c2ccccc32)CCC1` [Compound 156, cyclobutane-1,1-diylbis[(1-oxoethane-2,1-diyl)(1S)-1-(chloromethyl)-1,2-dihydro-3H-benzo[e]indole-3,5-diyl] diacetate] are ≥ 10 nM and 61.1 nM.
The corresponding values for `CC(=O)Oc1cc2c(c3ccccc13)[C@H](CCl)CN2C(=O)CC1(CC(=O)N2C[C@@H](CCl)c3c2cc(OC(C)=O)c2ccccc32)CCCC1` [Compound 157, cyclopentane-1,1-diylbis[(1-oxoethane-2,1-diyl)(1S)-1-(chloromethyl)-1,2-dihydro-3H-benzo[e]indole-3,5-diyl] diacetate] are ≥ 10 nM and 77.4 nM.
Turning to `CC(=O)Oc1cc2c(c3ccccc13)[C@H](CCl)CN2C(=O)CC12CC(CC(=O)N3C[C@@H](CCl)c4c3cc(OC(C)=O)c3ccccc43)(C1)C2` [Compound 158, bicyclo[1.1.1]pentane-1,3-diylbis[(1-oxoethane-2,1-diyl)(1S)-1-(chloromethyl)-1,2-dihydro-3H-benzo[e]indole-3,5-diyl] diacetate], the IC50 in test [1] was 14.3 nM; in the test with HL60 (leukemia) it was 4.91 nM.
For `CC(=O)Oc1cc2c(c3ccccc13)[C@H](CCl)CN2C(=O)C12CCC(C(=O)N3C[C@@H](CCl)c4c3cc(OC(C)=O)c3ccccc43)(CC1)CC2` [Compound 159, bicyclo[2.2.2]octane-1,4-diylbis[carbonyl(1S)-1-(chloromethyl)-1,2-dihydro-3H-benzo[e]indole-3,5-diyl] diacetate], in that order: 2.39 nM and 0.045 nM.
On to `Nc1cc2c(c3ccccc13)[C@H](CCl)CN2C(=O)C12CC(C(=O)N3C[C@@H](CCl)c4c3cc(OP(=O)(O)O)c3ccccc43)(C1)C2` [Compound 161, (1S)-3-[(3-{[(1S)-5-amino-1-(chloromethyl)-1,2-dihydro-3H-benzo[e]indol-3-yl]carbonyl}bicyclo[1.1.1]pent-1-yl)carbonyl]-1-(chloromethyl)-2,3-dihydro-1H-benzo[e]indol-5-yl dihydrogen phosphate], for which the IC50 was ≥ 10 nM in test [1] and 27.2 nM with HL60 (leukemia).
The corresponding values for `CC(=O)Oc1cc2c(c3ccccc13)[C@H](CCl)CN2C(=O)C12CC(CC(=O)N3C[C@@H](CCl)c4c3cc(O)c3ccccc43)(C1)C2` [Compound 162, (1S)-1-(chloromethyl)-3-[(3-{2-[(1S)-1-(chloromethyl)-5-hydroxy-1,2-dihydro-3H-benzo[e]indol-3-yl]-2-oxoethyl}bicyclo[1.1.1]pent-1-yl)carbonyl]-2,3-dihydro-1H-benzo[e]indol-5-yl acetate] are 0.749 nM and 0.02 nM.
